What was measured:
[1] = on average, subjects with schizophrenic disorders; cited from earlier work
[2] = tested on: clinical effects of ketamine, an NMDA receptor antagonist; settings: in vivo; cited from earlier work
[3] = tested on: catatonic features; assay: Bush-Francis Catatonia Rating Scale (BFCRS) assessment of patients before and after treatment; assay type: in vivo, human
Source text: This assessment tool, in conjunction with clinical observation, can be used to identify the severity of catatonia and track improvements with medication adjustments. Studies discussed herein focused on subjects in both secure and nonsecure residential settings.

CN1CCN(C2=Nc3cc(Cl)ccc3Nc3ccccc32)CC1 [clozapine, 8-chloro-11-(4-methylpiperazin-1-yl)-5H-dibenzo[b,e][1,4]diazepine]
blood levels needed to achieve greater clinical efficacy [1]: ≥ 400 ng/dL | effect on the clinical effects of ketamine [2]: reverse the clinical effects of ketamine

O=C(CCCN1CCC(O)(c2ccc(Cl)cc2)CC1)c1ccc(F)cc1 [haloperidol]
effect on the clinical effects of ketamine [2]: do not impact the effects of ketamine

Nc1nnc(-c2cccc(Cl)c2Cl)c(N)n1 [lamotrigine]
effect on the clinical effects of ketamine [2]: reverse the clinical effects of ketamine | treatment response ([3]; 10 out of 14 schizophrenic patients with catatonic features, non-secure settings, antipsychotic, lamotrigine, in some cases a benzodiazepine): marked treatment response | effect of lamotrigine alone on catatonic features ([3]; administration of lamotrigine alone): reduces catatonic features | effect on catatonic features at lowest dose ([3]; as little as 25 mg per day): meaningful reduction in catatonic features | effect on catatonic features as the amount of lamotrigine was increased ([3]; in some instances): complete remission of catatonic features | subjects who responded ([3]; of 20 confirmed cases of catatonia in secure residential settings, clozapine monotherapy with subsequent augmentation with lamotrigine): 11 | BFCRS score after treatment ([3]; one patient, reduced from 14, olanzapine plan later augmented with lamotrigine): 0 | follow up BFCRS score ([3]; one subject, non-secure setting, original BFCRS score 31, poor responder to clozapine and lorazepam, after augmentation with lamotrigine): 0 | BFCRS score after treatment ([3]; one subject, secure residential setting, dropped from 17, 3 weeks after starting the combination therapy): 11 | response at full dosage ([3]; titrated to a full dosage of 200 mg twice per day, paired with an antipsychotic): maximal responses

Cc1cc2c(s1)Nc1ccccc1N=C2N1CCN(C)CC1 [olanzapine, 2-methyl-4-(4-methyl-1-piperazinyl)-10H-thieno[2,3-b][1,5]benzodiazepine]
effect on the clinical effects of ketamine [2]: reverse the clinical effects of ketamine

Cc1nc2n(c(=O)c1CCN1CCC(c3noc4cc(F)ccc34)CC1)CCCC2 [risperidone]
effect on the clinical effects of ketamine [2]: do not impact the effects of ketamine

From patent US9066949B2, “Compositions and methods for the treatment of catatonia” (priority 2011, dated 2015)
